Assay results published in patent US20150057443A1, “Cycloalkyl Amine Compounds” (Prexa Pharmaceuticals, Inc., priority 2013, published 2015).
pKi: −log10 of the molar value. Where two headings read alike, the source gives them in different places.

Key:
human recombinant NET = target: T1, human recombinant NET (Homo sapiens, UniProt P23975); test: NET radioligand binding assay (scintillation proximity, [3H]nisoxetine)
T1 construct: membranes)
Protocol: (§1) Affinity of the compounds for monoamine transporters was determined by in vitro radioligand binding assays using cell membrane preparations derived from HEK293 cell lines stably expressing human recombinant DAT, NET or SERT receptor (Suven Life Sciences, Hyderabad, India).
(§2) Stable DAT cell lines were generated following procedures described in Eshelman et al., Molecular Pharmacology 45, 312-316; 1994. Stable NET cell lines were generated following procedures described in Pacholczyk et al., Nature 350, 350-354, 1991 and Galli et al., Journal Exp. Biol. 198, 2197-2212, 1995. Stable SERT cell lines were generated following procedures described in Ramamoorthy et al., Proc Natl Acad Sci USA 90, 2542-246, 1993.
(§3) Cell membranes were obtained from the above-referenced cell lines by manually homogenizing previously frozen cell pellets in Tris-HCl buffer and serially centrifugating and re-extracting the preparations according procedures described in Subbu et al., Journal Pharmacol ExpTher 327, 982-990, 2008.
(§4) A scintillation proximity assay was used to measure receptor binding. Homogenized membrane preparations (final protein concentration 8-15 ug/well) were pre-incubated with WGA PVT SPA beads (0.5 mg/well) for 5 minutes. Binding was initiated by adding high affinity ligands and test compounds (0.1 nM to 10 μM) or reference/positive control ligands to the membrane-bead complex. Plates were incubated for three hours and raw data counts recorded using a liquid scintillation counter (MicroBetaTriLux Counter, Perkin Elmer). Inhibition constants (Ki) were calculated using GraphPad Prism software (version 4.0).
NET receptor binding was determined using procedures described in Mason et al., The Journal of Pharmacology and Experimental Therapeutics 323:720-729, 2007; and Eshleman et al., The Journal of Pharmacology and Experimental Therapeutics289:877-885, 1999. A mixture of [3H]nisoxetine hydrochloride (N-methyl-[3H]nisoxetine, Perkin Elmer) and bead-membrane complex was added to wells containing test compound. Wells containing unlabeled nisoxetine (100 uM, Sigma) were used to define non-specific NET binding. Total radioligand was defined using assay buffer containing 1% DMSO in the presence of [3H]nisoxetine. NET Ki values were calculated using GraphPad Prism software (version 4.0).

human recombinant SERT = target: T2, human recombinant SERT (Homo sapiens, UniProt P31645); test: SERT radioligand binding assay (scintillation proximity, [3H]citalopram)
T2 construct: membranes)
Protocol: as §1, §2, §3, §4
SERT receptor binding was determined using procedures described in Owens et al., The Journal of Pharmacology and Experimental Therapeutics 283:1305-1322, 1997. A mixture of [3H]citalopram (N-methyl-[3H]citalopram, Perkin Elmer) and bead-membrane complex was added to wells containing test compound. Non-specific binding was determined using wells containing venlafaxine hydrochloride (100 uM, Sigma). Total radioligand was determined using assay buffer containing 1% DMSO in the presence of [3H]citalopram. SERT Ki values were calculated using GraphPad Prism software (version 4.0).

human recombinant DAT = human recombinant DAT (Homo sapiens, UniProt Q01959); test: DAT radioligand binding assay (scintillation proximity, [3H]WIN-35428)
Protocol: as §1, §2, §3, §4
DAT receptor binding was determined using procedures described in Skolnick et al., European Journal of Pharmacology, 461(2-3):99-104, 2003; and Eshleman et al., The Journal of Pharmacology and Experimental Therapeutics 289:877-885, 1999. A mixture of [3H]WIN-35428 (N-methyl 3H-WIN-35428, Perkin Elmer) and bead-membrane complex was added to wells containing test compound. Wells containing nomifensine maleate ([…], Sigma) were used to define non-specific […] binding. Total radioligand was defined by assay buffer containing 1% DMSO in the presence of [3H]WIN-35428. DAT Ki values were calculated using GraphPad Prism software (version 4.0).

[1] = HEK293 cell membranes expressing human recombinant NET, [3H]nisoxetine, SPA, read-out: NET Ki
[2] = HEK293 cell membranes expressing human recombinant SERT, [3H]citalopram, SPA, read-out: SERT Ki

T1 sequence (P23975 whole entry): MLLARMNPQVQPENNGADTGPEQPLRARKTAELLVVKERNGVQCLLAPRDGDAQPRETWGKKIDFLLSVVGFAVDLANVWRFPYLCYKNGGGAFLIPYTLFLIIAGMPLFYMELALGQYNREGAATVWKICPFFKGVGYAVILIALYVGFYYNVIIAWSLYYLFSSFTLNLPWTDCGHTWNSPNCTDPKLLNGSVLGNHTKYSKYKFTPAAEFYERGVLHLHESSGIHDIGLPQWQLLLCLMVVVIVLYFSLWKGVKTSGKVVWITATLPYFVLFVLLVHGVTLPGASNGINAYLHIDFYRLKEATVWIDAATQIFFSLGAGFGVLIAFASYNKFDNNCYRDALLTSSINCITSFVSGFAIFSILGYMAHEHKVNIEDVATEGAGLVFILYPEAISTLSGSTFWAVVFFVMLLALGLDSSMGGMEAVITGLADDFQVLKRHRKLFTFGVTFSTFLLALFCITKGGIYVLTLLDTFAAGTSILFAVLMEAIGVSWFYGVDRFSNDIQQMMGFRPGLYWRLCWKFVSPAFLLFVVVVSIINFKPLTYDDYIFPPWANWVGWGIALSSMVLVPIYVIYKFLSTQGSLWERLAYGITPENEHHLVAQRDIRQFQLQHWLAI
human recombinant DAT, sequence (Q01959 whole entry): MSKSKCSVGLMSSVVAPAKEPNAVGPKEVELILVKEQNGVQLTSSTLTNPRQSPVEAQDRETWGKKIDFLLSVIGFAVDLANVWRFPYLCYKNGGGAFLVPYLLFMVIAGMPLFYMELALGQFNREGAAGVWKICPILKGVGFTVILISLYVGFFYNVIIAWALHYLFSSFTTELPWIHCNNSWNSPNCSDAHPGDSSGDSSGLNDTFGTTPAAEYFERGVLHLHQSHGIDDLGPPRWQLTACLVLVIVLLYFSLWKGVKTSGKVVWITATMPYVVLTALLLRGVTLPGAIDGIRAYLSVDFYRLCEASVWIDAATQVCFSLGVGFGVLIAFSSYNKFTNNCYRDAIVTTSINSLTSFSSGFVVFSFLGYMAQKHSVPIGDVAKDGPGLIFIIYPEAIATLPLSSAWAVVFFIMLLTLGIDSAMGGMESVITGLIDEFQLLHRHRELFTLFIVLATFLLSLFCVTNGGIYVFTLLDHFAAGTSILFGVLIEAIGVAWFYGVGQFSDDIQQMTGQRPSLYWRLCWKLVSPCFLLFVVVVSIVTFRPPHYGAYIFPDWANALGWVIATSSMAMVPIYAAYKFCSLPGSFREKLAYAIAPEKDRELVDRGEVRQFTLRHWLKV
T2 sequence (P31645 whole entry): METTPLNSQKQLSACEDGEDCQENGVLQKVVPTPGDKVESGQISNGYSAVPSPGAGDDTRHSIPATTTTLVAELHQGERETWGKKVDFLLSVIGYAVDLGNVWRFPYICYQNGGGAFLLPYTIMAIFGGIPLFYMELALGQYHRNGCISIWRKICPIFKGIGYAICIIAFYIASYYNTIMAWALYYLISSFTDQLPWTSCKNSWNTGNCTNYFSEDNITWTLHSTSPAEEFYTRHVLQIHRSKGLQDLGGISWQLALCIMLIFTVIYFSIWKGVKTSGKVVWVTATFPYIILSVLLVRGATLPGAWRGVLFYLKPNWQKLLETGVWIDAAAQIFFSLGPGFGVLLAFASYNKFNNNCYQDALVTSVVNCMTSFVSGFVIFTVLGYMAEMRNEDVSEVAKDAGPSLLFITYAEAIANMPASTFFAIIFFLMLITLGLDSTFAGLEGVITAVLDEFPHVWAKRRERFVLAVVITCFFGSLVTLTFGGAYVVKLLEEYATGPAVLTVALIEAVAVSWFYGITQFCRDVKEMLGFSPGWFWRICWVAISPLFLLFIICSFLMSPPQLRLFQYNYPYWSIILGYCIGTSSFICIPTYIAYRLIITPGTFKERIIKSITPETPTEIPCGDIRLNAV

Compound | pKi (human recombinant NET; [1]) | pKi (human recombinant SERT; [2]) | pKi (human recombinant DAT) | pKi (human recombinant NET) | pKi (human recombinant SERT) | pKi (human recombinant DAT; HEK293 cell membranes expressing human recombinant DAT, [3H]WIN-35428, SPA, read-out: DAT Ki)
OC(CN1CCC(F)CC1)C1(c2ccc(Cl)c(Cl)c2)CCC1 (stereo not drawn) [Compound 23, 1-{2-[1-(3,4-Dichlorophenyl)cyclobutyl]-2-hydroxyethyl}-4-fluoropiperidin-1-ium chloride] | 6.30 to 7.00 | < 6.30 | > 8.00 | – | – | –
OC(CN1CCOCC1)C1(c2ccc(Cl)c(Cl)c2)CCC1 (stereo not drawn) [Compound 30, 4-{2-[1-(3,4-Dichlorophenyl)cyclobutyl]-2-hydroxyethyl}morpholin-4-ium chloride] | < 6.30 | < 6.30 | 7.00 to 7.96 | – | – | –
OC(CNC1CC1)C1(c2ccc(Cl)c(Cl)c2)CCC1 (stereo not drawn) [Compound 35, N-{2-[1-(3,4-Dichlorophenyl)cyclobutyl]-2-hydroxyethyl}cyclopropanaminium chloride] | 6.30 to 7.00 | < 6.30 | 7.00 to 7.96 | – | – | –
c1ccc(C2(CN3CCCCC3)CCC2)cc1 [Compound 4, 1-[(1-phenylcyclobutyl)methyl]piperidin-1-ium chloride] | < 6.30 | < 6.30 | < 6.30 | – | – | –
O[C@@H](CN1CCCCC1)C1(c2ccc(Cl)c(Cl)c2)CCC1 [Compound 14, 1-[(2R)-2-[1-(3,4-dichlorophenyl)cyclobutyl]-2-hydroxyethyl]piperidin-1-ium chloride] | 6.30 to 7.00 | < 6.30 | 7.00 to 7.96 | – | – | –
OC(CN1CC2CCC1C2)C1(c2ccc(Cl)c(Cl)c2)CCC1 (stereo not drawn) [Compound 25, 2-{2-[1-(3,4-Dichlorophenyl)cyclobutyl]-2-hydroxyethyl}-2-azabicyclo[2.2.1]heptan-2-ium chloride] | 7.00 to 7.96 | 6.30 to 7.00 | 7.00 to 7.96 | – | – | –
OC(CN1CCCCC1)C1(c2ccc(Cl)cc2)CCC1 (stereo not drawn) [Compound 6, 1-{2-[1-(4-Chlorophenyl)cyclobutyl]-2-hydroxyethyl}piperidin-1-ium chloride] | < 6.30 | < 6.30 | < 6.30 | – | – | –
CC(C)NCC(O)C1(c2ccc(Cl)c(Cl)c2)CCC1 (stereo not drawn) [Compound 19, {2-[1-(3,4-dichlorophenyl)cyclobutyl]-2-hydroxyethyl}(propan-2-yl)azanium chloride] | 7.00 to 7.96 | 6.30 to 7.00 | 7.00 to 7.96 | – | – | –
OC(CN1CCCCC1)C1(c2ccccc2)CCC1 (stereo not drawn) [Compound 5, 1-[2-hydroxy-2-(1-phenylcyclobutyl)ethyl]piperidin-1-ium chloride] | < 6.30 | < 6.30 | < 6.30 | – | – | –
CC1(NCC(O)C2(c3ccc(Cl)c(Cl)c3)CCC2)CC1 (stereo not drawn) [Compound 34, N-{2-[1-(3,4-Dichlorophenyl)cyclobutyl]-2-hydroxyethyl}-1-methylcyclopropan-1-aminium chloride] | 7.00 to 7.96 | 6.30 to 7.00 | 7.00 to 7.96 | – | – | –
CC(C)(C)NCC(O)C1(c2ccc(Cl)c(Cl)c2)CCC1 (stereo not drawn) [Compound 20, tert-butyl({2-[1-(3,4-dichlorophenyl)cyclobutyl]-2-hydroxyethyl})azanium chloride] | 7.00 to 7.96 | 6.30 to 7.00 | 7.00 to 7.96 | – | – | –
Clc1ccc(C2(CN3CCCCC3)CCC2)cc1Cl [Compound 3] | 7.00 to 7.96 | 6.30 to 7.00 | 7.00 to 7.96 | – | – | –
CC1(NCC(O)C2(c3ccc(Cl)c(Cl)c3)CCC2)CCC1 (stereo not drawn) [Compound 38, N-{2-[1-(3,4-Dichlorophenyl)cyclobutyl]-2-hydroxyethyl}-1-methylcyclobutan-1-aminium chloride] | 7.00 to 7.96 | 6.30 to 7.00 | > 8.00 | – | – | –
Clc1cccc(C2(CN3CCCCC3)CCC2)c1 [Compound 2] | < 6.30 | < 6.30 | < 6.30 | – | – | –
O=C(CN1CCCCC1)C1(c2ccc(Cl)cc2)CCC1 [Compound 66] | – | – | – | < 6.30 | < 6.30 | < 6.30
OC(CN1CCCCC1)C1(c2ccc(Cl)c(Cl)c2)CCCC1 (stereo not drawn) [Compound 60, 1-{2-[1-(3,4-dichlorophenyl)cyclopentyl]-2-hydroxyethyl}piperidin-1-ium chloride] | 6.30 to 7.00 | 6.30 to 7.00 | 7.00 to 7.96 | – | – | –
